Structures are written as SMILES. In brackets after ≈: the same amount, converted by molar mass. Read-outs that look alike come from different tables or passages of the source. Some results are limits rather than exact numbers.

Data set [1] concerns M. tuberculosis (H37Rv). Description: M. tuberculosis H37Rv resazurin reduction microplate MIC assay, normoxic conditions. Conditions: Mycobacterium tuberculosis, normoxia, read-out: antibacterial MIC M. tuberculosis normoxia. In kind it is cell-based. Background: Resazurin is reduced to fluorescent resorufin, in cell work by metabolically active cells.
Data set [2] deals with M. tuberculosis (H37Rv). Description: M. tuberculosis H37Rv resazurin reduction microplate MIC assay, hypoxic conditions (0.1% oxygen). The note with it: Mycobacterium tuberculosis; H37Rv, hypoxia (0.1% oxygen); read-out: antibacterial MIC M. tuberculosis hypoxia. The class given is cell-based, Mycobacterium tuberculosis.
The subject of a further data set is HEK293 cells. Also noted: method as in Jarrad et al. 2. Conditions: ATCC CRL-1573; ref Jarrad et al. 2; read-out: cytotoxicity CC50 HEK 293; cited from earlier work.
The next data set has as its system HepG2 cells. Also noted: method as in Jarrad et al. 2. The note with it: ATCC HB-8065; ref Jarrad et al. 2; read-out: cytotoxicity CC50 HepG2; cited from earlier work.
For data set [3], the system named is L. donovani MHOM/IN/80/DD8 (ATCC50212). Description: L. donovani DD8 intracellular (THP-1) amastigote assay. The class given is cell-based. Conditions: Leishmania donovani.
Data set [4] is described as follows: Broth microdilution MIC assay, ESKAPE pathogens. In kind it is cell-based. Conditions: S. aureus, E. coli, K. pneumoniae, A. baumannii, P. aeruginosa; read-out: antibacterial MIC ESKAPE.
Data set [5] has as its system ESKAPE pathogens S. aureus (ATCC 43300), E. coli (ATCC 25922), K. pneumoniae (ATCC 700603), A. baumannii (ATCC 19606), P. aeruginosa (ATCC 27853). In words: Broth microdilution MIC assay, ESKAPE pathogens. In kind it is cell-based. (Broth dilution looks for growth in wells or tubes with falling amounts of substance.)
Data set [6] is described as follows: Plasma protein binding, ultrafiltration method. The class given is in vitro ADME. Conditions: human plasma, % bound, read-out: PPB (%) (converted).
Data set [7] is described as follows: Kinetic solubility determination by LC-UV. The note with it: room temperature, 1% DMSO.
A further data set concerns G. lamblia (WB line). In words: ATP-bioluminescence cell growth and survival assay, G. lamblia trophozoites. In kind it is cell-based. Conditions: Giardia duodenalis.
Data set [8] deals with E. histolytica (HM1:IMSS). In words: ATP-bioluminescence cell growth and survival assay, E. histolytica trophozoites. In kind it is cell-based. The note with it: Entamoeba histolytica.
For data set [9], the system named is C. difficile (630, ATCC BAA-1382). Description: Broth microdilution MIC assay, C. difficile. Conditions: 630 ATCC BAA-1382, median MIC; for MIC: Clostridioides difficile, ATCCBAA1382, read-out: antibacterial MIC C. difficile. The class given is cell-based, Clostridium difficile.
Data set [10] has as its system T. b. brucei (strain 427, BS427). Description: 384-well resazurin viability assay, T. b. brucei bloodstream parasites. In kind it is cell-based. The note with it: Trypanosoma brucei, BS427, n = 2.
Data set [11] has as its system C. albicans (ATCC 90028) and C. neoformans (H99, ATCC 208821). In words: Broth microdilution MIC assay, fungi. In kind it is cell-based. Conditions: for MIC: Candida albicans, read-out: antifungal MIC.
Data set [12] is described as follows: Mammalian cytotoxicity assay (resazurin), HepG2. The note with it: human, HepG2 cells.
Data set [13] can be described thus: Mammalian cytotoxicity assay (resazurin), HEK293. Conditions: human, HEK293 cells.
The mark [14] stands for this setting: read-out: antiparasitic IC50 L. donovani.
Where [15] appears, read: read-out: antiparasitic pIC50 ± SE L. donovani (converted).
Where [16] appears, read: PBS, pH 7.4, Solubility µM (PBS), PBS pH 7.4, 24 h.
Setting [17] is: water, Solubility µM (H2O), 24 h.
Setting [18] is: read-out: antiparasitic IC50 G. lamblia.
[19] abbreviates: read-out: antiparasitic IC50 E. histolytica.
The mark [20] stands for this setting: read-out: antiparasitic pIC50 ± SE E. histolytica (converted).
Setting [21] is: read-out: antiparasitic pIC50 ± SE G. lamblia (converted).
[22] abbreviates: read-out: antiparasitic IC50 T. b. brucei.
The mark [23] stands for this setting: read-out: antiparasitic pIC50 ± SE T. b. brucei (converted).

As usually defined, the MIC is the smallest concentration in the dilution series that meets the test's criterion for growth inhibition. As usually defined, the CC50 is the concentration at which the toxic effect on the cells reaches its halfway point. Turning to `NC(=O)c1ncc([N+](=O)[O-])[nH]1` [16a], the MIC in the data set with M. tuberculosis (H37Rv) [1] and with M. tuberculosis (H37Rv) [2] was over 32 mg/L in each case. In addition, the CC50 in the data set on HEK293 cells and with HepG2 cells was over 100 µM throughout.

As a reminder, the solubility is the concentration that dissolves in the medium under given conditions. `O=c1c2nc([N+](=O)[O-])cn2ccn1Cc1ccc(F)cc1` [17e, 7-(4-Fluorobenzyl)-2-nitroimidazo[1,2-a]pyrazin-8(7H)-one]: the IC50 in [3] (setting [14]) is over 80 µM; in data set [3] (setting [15]), over 79.4 µM. Moreover, in [4], the MIC is over 32 mg/L. Besides, in [5], the “antibacterial MIC ESKAPE” value is over 32 mg/L. In data set [6], the fraction unbound at 0.5 h, 5 µM was 0.18. Besides, the solubility at 24 h in data set [7] (setting [16]) and in [7] (setting [17]) was under 5 µM each time.

Turning to `O=c1c2nc([N+](=O)[O-])cn2ccn1CCc1ccc(OC(F)(F)F)cc1` [17m, 2-Nitro-7-(4-(trifluoromethoxy)phenethyl)imidazo[1,2-a]pyrazin-8(7H)-one], the MIC with M. tuberculosis (H37Rv) [1] is 8 mg/L (≈ 21.7 µM); in data set [9] it was 64 mg/L (≈ 174 µM); in data set [4], over 32 mg/L. For the same molecule, the IC50 was 1.6 to 3.2 µM in the data set on G. lamblia (WB line) (setting [18]); over 50 µM in data set [8] (setting [19]); over 50.1 µM in data set [8] (setting [20]); over 80 µM in data set [3] (setting [14]); over 79.4 µM in data set [3] (setting [15]). Besides, the “antibacterial MIC ESKAPE” value in [5] was over 32 mg/L. The solubility at 24 h in data set [7] (setting [16]) and in data set [7] (setting [17]) was under 5 µM throughout.

Take `Cc1ccc(CCn2ccn3cc([N+](=O)[O-])nc3c2=O)cc1` [17n, 7-(4-Methylphenethyl)-2-nitroimidazo[1,2-a]pyrazin-8(7H)-one]: the MIC is 4 mg/L (≈ 13.4 µM) in the data set with M. tuberculosis (H37Rv) [1], over 64 mg/L in data set [9] and over 32 mg/L in [4]. Besides, the IC50 is 1.6 to 3.2 µM in the data set with G. lamblia (WB line) (setting [18]); over 50 µM in data set [8] (setting [19]); over 50.1 µM in data set [8] (setting [20]); over 80 µM in data set [3] (setting [14]); over 79.4 µM in data set [3] (setting [15]). Further, the “antibacterial MIC C. difficile” value in data set [9] was over 64 mg/L. For the same molecule, the “antibacterial MIC ESKAPE” value in data set [5] was over 32 mg/L. For the same molecule, the solubility at 24 h in [7] (setting [16]) and in data set [7] (setting [17]) was under 5 µM in each case.

As for `O=c1c2nccn2ccn1Cc1ccccc1` [20b, 7-Benzylimidazo[1,2-a]pyrazin-8(7H)-one], the MIC is over 32 mg/L with M. tuberculosis (H37Rv) [1]; over 32 mg/L in the data set with M. tuberculosis (H37Rv) [2]; over 64 mg/L in data set [9]; over 32 mg/L in [4]; over 32 mg/L in data set [11]. The IC50 in the data set on G. lamblia (WB line) (setting [18]) is over 25 µM; in the data set with G. lamblia (WB line) (setting [21]), over 25.1 µM; in data set [8] (setting [19]) it was over 25 µM; in [8] (setting [20]), over 25.1 µM; in [10] (setting [22]), over 40 µM; in [10] (setting [23]), over 39.8 µM. Further, the figures for the IC50 in [3] (setting [14]) and in data set [3] (setting [15]) were over 80 µM and over 79.4 µM, respectively. Further, the CC50 at 24 h in data set [12] and in data set [13] was over 100 µM in each case.

Consider `O=c1c2nccn2ccn1Cc1ccc(F)cc1` [20c, 7-(4-Fluorobenzyl)imidazo[1,2-a]pyrazin-8(7H)-one], for which the minimum inhibitory concentration (MIC) is over 32 mg/L in the data set on M. tuberculosis (H37Rv) [1]; over 32 mg/L with M. tuberculosis (H37Rv) [2]; over 64 mg/L in data set [9]; over 32 mg/L in data set [4]; over 32 mg/L in data set [11]. Besides, the IC50 in the data set with G. lamblia (WB line) (setting [18]) was over 50 µM; with G. lamblia (WB line) (setting [21]), over 50.1 µM; in data set [8] (setting [19]), over 50 µM; in [8] (setting [20]), over 50.1 µM; in data set [10] (setting [22]) it was over 40 µM; in [10] (setting [23]), over 39.8 µM. Further, the results for the IC50 in [3] (setting [14]) and in data set [3] (setting [15]) were over 80 µM and over 79.4 µM, respectively. Further, the CC50 at 24 h in [12] and in data set [13] was over 100 µM in each case.

As for `Cc1cn2cc([N+](=O)[O-])nc2c(=O)n1Cc1ccc(OC(F)(F)F)cc1` [25f, 6-Methyl-2-nitro-7-(4-(trifluoromethoxy)benzyl)imidazo[1,2-a]pyrazin-8(7H)-one], the IC50 is over 80 µM in data set [3] (setting [14]) and over 79.4 µM in data set [3] (setting [15]). Besides, in data set [9], the “antibacterial MIC C. difficile” value was over 64 mg/L. Besides, the figures for the MIC in data set [9], in [4] and in data set [11] were over 64 mg/L, over 32 mg/L and over 32 mg/L, respectively. The “antibacterial MIC ESKAPE” value in data set [5] is over 32 mg/L. For the same molecule, the “antifungal MIC” value in data set [11] was over 32 mg/L. The fraction unbound at 0.5 h, 5 µM in data set [6] was 0.02. The solubility at 24 h in data set [7] (setting [16]) and in [7] (setting [17]) was under 5 µM throughout. Moreover, the CC50 at 24 h in data set [12] and in [13] was over 100 µM each time.
